Measured values: patent US20060122181A1, “Heteroaromatic pentacyclic compound and medicinal use thereof” (Japan Tobacco Inc., priority 2003, published 2006)

Experiments:
[1] = molecular target: T1, Recombinant human protein tyrosine phosphatase 1B (Homo sapiens, UniProt P18031); experiment: Protein tyrosine phosphatase 1B inhibitory activity (malachite green, phosphorylated insulin receptor peptide substrate); assay type: biochemical; conditions: recombinant human PTP1B, 60 min room temperature, absorbance 650 nm
T1 construct: purchased UBI
T1 sequence (P18031 1-435): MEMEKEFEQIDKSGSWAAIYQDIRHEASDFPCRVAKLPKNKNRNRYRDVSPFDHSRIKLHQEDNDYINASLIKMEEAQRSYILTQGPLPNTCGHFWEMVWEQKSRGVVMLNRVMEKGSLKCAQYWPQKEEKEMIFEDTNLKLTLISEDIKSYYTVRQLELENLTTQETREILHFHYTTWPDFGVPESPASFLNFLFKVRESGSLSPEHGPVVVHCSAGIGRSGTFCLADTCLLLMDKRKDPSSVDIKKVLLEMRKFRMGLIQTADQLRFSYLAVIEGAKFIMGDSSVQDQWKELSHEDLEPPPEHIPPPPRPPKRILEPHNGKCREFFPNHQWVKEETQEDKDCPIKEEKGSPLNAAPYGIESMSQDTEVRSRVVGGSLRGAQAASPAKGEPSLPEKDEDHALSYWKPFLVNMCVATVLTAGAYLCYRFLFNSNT
Experimental: Preparation of Assay Buffer:
A 50 mM Tris-HCl buffer (pH 7.5), 50 mM NaCl and 3 mM dithiothreitol (DTT) were prepared.
[…] 0.1, 0.3, 1, 3 and 10 μM of the test compound were prepared and diluted with the above-mentioned assay buffer to the final dimethyl sulfoxide (DMSO) concentration of not more than 1%. As the control, the assay buffer was used.
Preparation of Substrate:
Recombinant human protein tyrosine phosphatase 1B (manufactured by UBI) was diluted with the above-mentioned assay buffer (1.2 ng/25 μl).
The sample (10 μl) prepared as mentioned above and a substrate (25 μl) were successively added to a 96 well plate, and the enzyme (25 μl) prepared as mentioned above was added and mixed. The mixture was incubated at room temperature for 60 min and a malachite green (120 μl, Biomol), which is a color reagent, was added. The mixture was further incubated at room temperature for 20 min to allow for color development. An absorbance at 650 nm was measured on a plate reader based on which the protein tyrosine phosphatase 1B inhibitory activity of the test compound was evaluated.

| IC50 [1] [µM] | melting point [°C] | Structure (SMILES) |
| --- | --- | --- |
| 0.27 | 121 to 128 | O=C(O)CCN(Cc1ccccc1)Cc1ccc(-c2ccc3c(c2)CCC3Cc2ccc(C3CCCCC3)cc2)s1 (stereo not drawn) [Example 4-84] |
| 0.16 | 141.2 to 144.1 | C=CCn1c(CN(CC(=O)O)Cc2ccc(-c3ccc(COc4ccc(C(CCC)CCC)cc4)cc3)s2)nc2ccccc21 [Example 4-106] |
| 0.12 | 137.3 to 138.7 | CCCC(CCC)c1ccc(OCc2ccc(-c3csc(CN(CC(=O)O)Cc4ccc5ccccc5n4)c3)cc2)cc1 [Example 4-87] |
| 0.4 | 195.7 to 196.8 | CCCC(CCC)c1ccc(OCc2ccc(-c3ccc(CN(CC(=O)O)Cc4ccc(OC)cc4)s3)cc2)cc1 [Example 4-77] |
| 0.11 | 202.3 to 204.4 | CCCC(CCC)c1ccc(OCc2ccc(-c3ccc(CN(CC(=O)O)Cc4cc5ccccc5s4)s3)cc2)cc1 [Example 4-97] |
| 0.18 | 191 to 193 | CCCC(CCC)c1ccc(COc2ccc(-c3csc(CN4CCC(c5ccc(C(=O)O)cc5)CC4)n3)cc2)cc1 [Example 1-161] |
| 0.23 | 141 to 144 | CCN(Cc1ccc(C2CCCCC2)cc1)c1ccc(-c2ccc(CN(CCOc3ccccc3)CC(=O)O)s2)cc1 [Example 4-67] |
| 0.14 | 165.7 to 166.8 | CCCC(CCC)c1ccc(OCc2ccc(-c3csc(CN(CC(=O)O)Cc4nc5ccccc5n4C)c3)cc2)cc1.Cl [Example 4-54] |
| 0.16 | 229 to 231 | CN(Cc1ccc([C@H]2CC[C@H](C)CC2)cc1)c1ccc(-c2csc(CN3CCC(C(=O)O)(c4ccccc4)CC3)n2)cc1 [Example 3-69] |
| < 0.1 | 151.2 to 154.4 | CCCC(CCC)c1ccc(OCc2ccc(-c3ccc(CN(CC(=O)O)S(=O)(=O)c4ccc(Cl)s4)s3)cc2)cc1 [Example 4-100] |
| 0.12 | 131.8 to 137.6 | CCCC(CCC)c1ccc(OCc2ccc(-c3ccc(CN(CC(=O)O)Cc4c[nH]c(-c5ccccc5)n4)s3)cc2)cc1 [Example 4-94] |
| 0.37 | 137 to 138 | CCCC(CCC)c1ccc(COc2ccc(-c3csc(CN4CCN(c5ccccc5C(=O)O)CC4)n3)cc2)cc1 [Example 1-155] |
| 0.31 | 148.5 to 149.5 | CCCC(CCC)c1ccc(OCc2ccc(-c3csc(CN4CCc5ccc(C(=O)O)cc5C4)n3)cc2)cc1 [Example 1-160] |
| 0.2 | 115.9 to 121.1 | Cc1ccc(OCc2ccc(C3CCCCC3)cc2)c(-c2csc(CN(C(=O)C(=O)O)c3ccc4nc(C)sc4c3)c2)c1 [Example 4-104] |
| 0.48 | 75.3 to 79.3 | CCCC(CCC)c1ccc(OCc2ccc(-c3ccc(CN(CC(=O)OCC)CC(=O)c4ccc(N5CCCC5)cc4)s3)cc2)cc1.Cl [Example 4-82] |
| 0.17 | 137.5 to 141.5 | CCCC(CCC)c1ccc(OCc2ccc(-c3csc(CN(CC(=O)O)Cc4nc5ccccc5n4C)c3)cc2)cc1.O=S(=O)(O)O [Example 4-55] |
| 0.49 | 135.2 to 136 | CCCC(CCC)c1ccc(OCc2ccc(-c3csc(CN(CC(=O)O)Cc4nccn4Cc4ccccc4)c3)cc2)cc1 [Example 4-89] |
| 0.28 | 145.9 to 149.3 | CCCC(CCC)c1ccc(OCc2ccc(-c3ccc(CN(CC(=O)O)Cc4c[nH]nc4-c4ccccc4)s3)cc2)cc1 [Example 4-95] |
| 0.45 | 128 to 131 | CCN(Cc1ccc(C2CCCCC2)cc1)c1ccc(-c2ccc(CN(CC(=O)O)Cc3ccccn3)s2)cc1 [Example 4-66] |
| 0.1 | 194.8 to 197 | CCCC(CCC)c1ccc(OCc2ccc(-c3ccc(CN(CC(=O)O)Cc4nc5ccccc5n4CC(=O)N(CC)CC)s3)cc2)cc1 [Example 4-101] |
| 0.21 | 187 to 189 | CCCC(CCC)c1ccc(COc2ccc(-c3csc(CN4CCC(c5cccc(C(=O)O)c5)CC4)n3)cc2)cc1 [Example 1-162] |
